The compounds below were run against T1, human Nav1.8 (hNav1.8) ion channel (Homo sapiens, UniProt Q9Y5Y9) (assay: Nav1.8 channel inhibition, estimated IC50 (one or more of: fluorescence inhibition assay, PatchXpress, IonFlux HT automated patch clamp)). Settings: HEK293 cells stably expressing hNav1.8; method used per compound not stated; read-out: Activity range (estimated IC50).
T1 construct: expressed in transfected cells; host or cells: HEK293
Type: cell-based
Method in brief: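 HEK293 cells stably expressing hNav1.8 with β1/β2 subunits; IC50 from the fluorescence assay and/or automated whole-cell patch clamp (PatchXpress, IonFlux HT). Fluorescence: ANG-2 Na dye, 5 min compound preincubation (0.02–5 μM, 1% DMSO) with 30 μM ouabain, stimulation by 10 μM deltamethrin, peak signal fit logistically. PatchXpress: holding potential reset to Vhalf, inhibition normalized to control/washout currents.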

T1 sequence (Q9Y5Y9 whole entry): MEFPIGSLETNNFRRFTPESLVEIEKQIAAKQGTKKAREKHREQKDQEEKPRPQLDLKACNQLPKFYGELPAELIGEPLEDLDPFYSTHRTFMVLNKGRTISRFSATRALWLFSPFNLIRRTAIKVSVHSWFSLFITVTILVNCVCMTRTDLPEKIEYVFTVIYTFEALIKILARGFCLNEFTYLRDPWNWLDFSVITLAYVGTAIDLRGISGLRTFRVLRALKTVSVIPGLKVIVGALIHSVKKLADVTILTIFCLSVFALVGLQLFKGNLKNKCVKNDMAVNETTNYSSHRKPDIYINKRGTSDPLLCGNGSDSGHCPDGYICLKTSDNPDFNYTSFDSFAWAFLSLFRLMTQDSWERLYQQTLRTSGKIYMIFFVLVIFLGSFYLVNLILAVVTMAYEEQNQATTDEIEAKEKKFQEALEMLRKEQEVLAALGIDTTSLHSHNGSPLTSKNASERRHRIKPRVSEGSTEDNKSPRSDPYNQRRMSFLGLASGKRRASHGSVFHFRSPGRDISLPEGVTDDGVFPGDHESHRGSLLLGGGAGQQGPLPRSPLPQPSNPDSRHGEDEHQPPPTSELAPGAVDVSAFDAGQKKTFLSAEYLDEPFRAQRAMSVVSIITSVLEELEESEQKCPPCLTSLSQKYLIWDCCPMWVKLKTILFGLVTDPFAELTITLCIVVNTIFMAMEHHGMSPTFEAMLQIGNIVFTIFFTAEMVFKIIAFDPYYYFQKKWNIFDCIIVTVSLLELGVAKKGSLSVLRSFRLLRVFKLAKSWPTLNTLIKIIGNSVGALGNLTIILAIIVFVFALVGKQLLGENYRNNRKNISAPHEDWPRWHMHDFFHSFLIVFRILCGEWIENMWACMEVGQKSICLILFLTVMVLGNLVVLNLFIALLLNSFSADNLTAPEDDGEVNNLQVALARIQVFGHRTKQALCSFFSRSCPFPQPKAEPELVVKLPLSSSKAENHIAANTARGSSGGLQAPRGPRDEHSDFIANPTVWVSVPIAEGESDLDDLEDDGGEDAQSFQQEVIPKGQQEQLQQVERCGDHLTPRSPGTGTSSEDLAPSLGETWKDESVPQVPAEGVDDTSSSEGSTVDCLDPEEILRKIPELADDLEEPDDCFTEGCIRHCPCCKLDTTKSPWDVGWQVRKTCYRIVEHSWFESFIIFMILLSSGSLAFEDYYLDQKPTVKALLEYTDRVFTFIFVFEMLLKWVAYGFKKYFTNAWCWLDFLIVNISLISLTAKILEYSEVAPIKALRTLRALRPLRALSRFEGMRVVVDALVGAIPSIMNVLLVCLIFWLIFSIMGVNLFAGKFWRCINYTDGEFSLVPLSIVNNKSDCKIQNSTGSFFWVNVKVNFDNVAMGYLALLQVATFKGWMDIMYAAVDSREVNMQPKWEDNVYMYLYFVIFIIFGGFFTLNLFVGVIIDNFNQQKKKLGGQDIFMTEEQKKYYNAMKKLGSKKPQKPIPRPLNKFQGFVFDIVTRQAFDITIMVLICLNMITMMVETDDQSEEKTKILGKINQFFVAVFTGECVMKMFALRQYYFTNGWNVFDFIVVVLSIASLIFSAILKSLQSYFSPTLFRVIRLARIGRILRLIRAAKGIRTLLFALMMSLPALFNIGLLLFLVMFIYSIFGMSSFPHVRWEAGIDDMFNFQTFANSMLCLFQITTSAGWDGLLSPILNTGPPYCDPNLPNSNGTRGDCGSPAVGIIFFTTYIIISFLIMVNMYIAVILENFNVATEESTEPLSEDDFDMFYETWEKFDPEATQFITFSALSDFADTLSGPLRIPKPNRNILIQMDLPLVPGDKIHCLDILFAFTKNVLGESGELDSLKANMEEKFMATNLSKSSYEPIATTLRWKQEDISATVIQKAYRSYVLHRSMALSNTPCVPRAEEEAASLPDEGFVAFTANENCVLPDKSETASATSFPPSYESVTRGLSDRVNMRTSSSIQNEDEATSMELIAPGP

| Compound | IC50 [nM] |
| --- | --- |
| Cc1cc(F)ccc1Oc1ncc(C(F)(F)F)cc1C(=O)Nc1cccc(S(C)(=N)=O)c1 (stereo not shown) [Example 115, 2-(4-fluoro-2-methyl-phenoxy)-N-[3-(methylsulfonimidoyl)phenyl]-5-(trifluoromethyl)pyridine-3-carboxamide] | < 500 |
| CS(=O)(=O)c1cccc(NC(=O)c2cc(C(F)(F)F)cnc2Oc2cc(F)cc(Cl)c2)c1 [Example 45, 2-(3-chloro-5-fluoro-phenoxy)-N-(3-methylsulfonyl-phenyl)-5-(trifluoromethyl)pyridine-3-carboxamide] | > 1000 |
| O=C(Nc1ccc[n+]([O-])c1)c1cnc(C(F)(F)F)cc1Oc1ccc(F)cc1F [Example 89, 4-(2,4-difluorophenoxy)-N-(1-oxidopyridin-1-ium-3-yl)-6-(trifluoromethyl)pyridine-3-carboxamide] | > 1000 |
| COc1cc(F)ccc1Oc1ncc(C(F)(F)F)cc1C(=O)Nc1ccncn1 [Example 12, 2-(4-fluoro-2-methoxy-phenoxy)-N-pyrimidin-4-yl-5-(trifluoromethyl)pyridine-3-carboxamide] | < 500 |
| CS(=O)(=O)c1cccc(NC(=O)c2cc(C(F)(F)F)cnc2Oc2ccc(OCC(F)(F)F)cc2)c1 [Example 50, N-(3-methylsulfonyl-phenyl)-2-[4-(2,2,2-trifluoroethoxy)phenoxy]-5-(trifluoromethyl)pyridine-3-carboxamide] | < 500 |
| CS(=N)(=O)c1cccc(NC(=O)c2cnc(C(F)(F)F)cc2Oc2ccc(OC(F)(F)F)cc2Cl)c1 (stereo not shown) [Example 80, 4-[2-chloro-4-(trifluoromethoxy)phenoxy]-N-[3-(methylsulfonimidoyl)phenyl]-6-(trifluoromethyl)pyridine-3-carboxamide] | < 500 |
| COc1ccc(Oc2ncc(C(F)(F)F)cc2C(=O)Nc2cccc(S(C)(=O)=O)c2)c(Cl)c1 [Example 23, 2-(2-chloro-4-methoxy-phenoxy)-N-(3-methylsulfonylphenyl)-5-(trifluoromethyl)pyridine-3-carboxamide] | < 500 |
| COc1ccc(Oc2ncc(C(F)(F)F)cc2C(=O)Nc2cccc(S(C)(=N)=O)c2)c(Cl)c1 (stereo not shown) [Example 61, 2-(2-chloro-4-methoxy-phenoxy)-N-[3-(methylsulfonimidoyl)phenyl]-5-(trifluoromethyl)pyridine-3-carboxamide] | < 500 |
| COc1cc(F)ccc1Oc1cc(C(F)(F)F)ncc1C(=O)Nc1ccc[n+]([O-])c1 [Example 84, 4-(4-fluoro-2-methoxy-phenoxy)-N-(1-oxidopyridin-1-ium-3-yl)-6-(trifluoromethyl)pyridine-3-carboxamide] | 500 to 1000 |
| COc1cc(F)ccc1Oc1ncc(C2CC2)cc1C(=O)Nc1cccc(S(C)(=O)=O)c1 [Example 112, 5-cyclopropyl-2-(4-fluoro-2-methoxy-phenoxy)-N-(3-methylsulfonylphenyl)pyridine-3-carboxamide] | > 1000 |
| Cc1ccc(Oc2ncc(C(F)(F)F)cc2C(=O)Nc2cccc(S(C)(=O)=O)c2)c(C)c1 [Example 22, 2-(2,4-dimethylphenoxy)-N-(3-methylsulfonylphenyl)-5-(trifluoromethyl)pyridine-3-carboxamide] | > 1000 |
| COc1cc(F)ccc1Oc1cc(C(F)(F)F)ncc1C(=O)Nc1cccc([S+](C)[O-])c1 (stereo not shown) [Example 68, 4-(4-fluoro-2-methoxy-phenoxy)-N-(3-methylsulfinylphenyl)-6-(trifluoromethyl)pyridine-3-carboxamide] | < 500 |
| COc1cc(F)ccc1Oc1ncc(C(F)(F)F)cc1C(=O)Nc1cccc([S+](C)[O-])c1 (stereo not shown) [Example 8, 2-(4-fluoro-2-methoxy-phenoxy)-N-(3-methylsulfinylphenyl)-5-(trifluoromethyl)pyridine-3-carboxamide] | < 500 |
| O=C(Nc1ccnnc1)c1cc(C(F)(F)F)cnc1Oc1ccc(Cl)cc1Cl [Example 63, 2-(2,4-dichlorophenoxy)-N-pyridazin-4-yl-5-(trifluoromethyl)pyridine-3-carboxamide] | 500 to 1000 |
| CS(=O)(=O)c1cccc(NC(=O)c2cc(C(F)(F)F)cnc2Oc2cc(F)cc(F)c2)c1 [Example 49, 2-(3,5-difluorophenoxy)-N-(3-methylsulfonyl-phenyl)-5-(trifluoromethyl)pyridine-3-carboxamide] | > 1000 |
| NC(=O)c1cccc(NC(=O)c2cnc(C(F)(F)F)cc2Oc2ccc(OC(F)(F)F)cc2Cl)c1 [Example 81, N-(3-carbamoylphenyl)-4-[2-chloro-4-(trifluoromethoxy)phenoxy]-6-(trifluoromethyl)pyridine-3-carboxamide] | < 500 |
| COc1cc(F)ccc1Oc1ncc(C(F)(F)F)cc1C(=O)Nc1ccc(C)nc1 [Example 18, 2-(4-fluoro-2-methoxy-phenoxy)-N-(6-methyl-3-pyridyl)-5-(trifluoromethyl)pyridine-3-carboxamide] | > 1000 |
| CN(C)S(=O)(=O)c1cccc(NC(=O)c2cnc(C(F)(F)F)cc2Oc2ccc(OC(F)(F)F)cc2Cl)c1 [Example 76, 4-[2-chloro-4-(trifluoromethoxy)phenoxy]-N-[3-(dimethylsulfamoyl)phenyl]-6-(trifluoromethyl)pyridine-3-carboxamide] | 500 to 1000 |
| CS(=O)(=O)c1cccc(NC(=O)c2cc(C(F)(F)F)cnc2Oc2ccc(SC(F)(F)F)cc2)c1 [Example 51, N-(3-methylsulfonyl-phenyl)-5-(trifluoromethyl)-2-[4-(trifluoromethyl-sulfanyl)phenoxy]pyridine-3-carboxamide] | < 500 |
| Cc1cc(F)ccc1Oc1ncc(C(F)(F)F)cc1C(=O)Nc1cccc(S(C)(=O)=O)c1 [Example 113, 2-(4-fluoro-2-methyl-phenoxy)-N-(3-methylsulfonylphenyl)-5-(trifluoromethyl)pyridine-3-carboxamide] | 500 to 1000 |

Results, then the compound that gave them:

| IC50 [nM] | Compound |
| --- | --- |
| < 500 | O=C(Nc1ccncc1)c1cc(C(F)(F)F)cnc1Oc1ccc(OC(F)(F)F)cc1 [Example 127, N-(4-pyridyl)-2-[4-(trifluoromethoxy)phenoxy]-5-(trifluoromethyl)pyridine-3-carboxamide] |
| > 1000 | Cc1cc(F)ccc1Oc1ncc(C(F)(F)F)cc1C(=O)Nc1ccnnc1 [Example 116, 2-(4-fluoro-2-methyl-phenoxy)-N-pyridazin-4-yl-5-(trifluoromethyl)pyridine-3-carboxamide] |
| < 500 | COc1cc(F)ccc1Oc1nc(C)c(C)cc1C(=O)Nc1cccc(S(C)(=O)=O)c1 [Example 118, 2-(4-fluoro-2-methoxy-phenoxy)-5,6-dimethyl-N-(3-methylsulfonylphenyl)pyridine-3-carboxamide] |
| 500 to 1000 | O=C(Nc1cccnc1)c1cc(C(F)(F)F)cnc1Oc1ccc(OC(F)(F)F)cc1 [Example 126, N-(3-pyridyl)-2-[4-(trifluoromethoxy)phenoxy]-5-(trifluoromethyl)pyridine-3-carboxamide] |
| > 1000 | COc1cc(F)ccc1Oc1ncc(C(F)(F)F)cc1C(=O)Nc1ccc[n+]([O-])c1 [Example 134, 2-(4-fluoro-2-methoxy-phenoxy)-N-(1-oxidopyridin-1-ium-3-yl)-5-(trifluoromethyl)pyridine-3-carboxamide] |
| < 500 | CN=S(C)(=O)c1cccc(NC(=O)c2cc(C(F)(F)F)cnc2Oc2ccc(OC(F)(F)F)cc2Cl)c1 (stereo not shown) [Example 144, 2-[2-chloro-4-(trifluoromethoxy)phenoxy]-N-[3-(N,S-dimethylsulfonimidoyl)phenyl]-5-(trifluoromethyl)pyridine-3-carboxamide] |
| > 1000 | Cn1cnc(NC(=O)c2cc(C(F)(F)F)cnc2Oc2ccc(OC(F)(F)F)cc2Cl)n1 [Example 170, 2-[2-chloro-4-(trifluoromethoxy)phenoxy]-N-(1-methyl-1,2,4-triazol-3-yl)-5-(trifluoromethyl)pyridine-3-carboxamide] |
| < 500 | CN(C)C(=O)c1cccc(NC(=O)c2cc(C(F)(F)F)cnc2Oc2ccc(OC(F)(F)F)cc2Cl)c1 [Example 151, 2-[2-chloro-4-(trifluoromethoxy)phenoxy]-N-[3-(dimethylcarbamoyl)phenyl]-5-(trifluoromethyl)pyridine-3-carboxamide] |
| < 500 | CN=S(C)(=O)c1cccc(NC(=O)c2cc(C(F)(F)F)cnc2Oc2ccc(OC(F)(F)F)cc2)c1 (stereo not shown) [Example 124, N-[3-(N,S-dimethylsulfonimidoyl)phenyl]-2-[4-(trifluoromethoxy)phenoxy]-5-(trifluoromethyl)pyridine-3-carboxamide] |
| < 500 | Cn1cc(NC(=O)c2cc(C(F)(F)F)cnc2Oc2ccc(OC(F)(F)F)cc2Cl)cn1 [Example 147, 2-[2-chloro-4-(trifluoromethoxy)phenoxy]-N-(1-methylpyrazol-4-yl)-5-(trifluoromethyl)pyridine-3-carboxamide] |
| < 500 | COc1cc(F)ccc1Oc1nc2c(cc1C(=O)Nc1cccc(S(C)(=O)=O)c1)CCC2 [Example 120, 2-(4-fluoro-2-methoxy-phenoxy)-N-(3-methylsulfonylphenyl)-6,7-dihydro-5H-cyclopenta[b]pyridine-3-carboxamide] |
| < 500 | CS(=O)(=O)c1ccc(NC(=O)c2cc(C(F)(F)F)cnc2Oc2ccc(OC(F)(F)F)cc2Cl)cc1 [Example 152, 2-[2-chloro-4-(trifluoromethoxy)phenoxy]-N-(4-methylsulfonylphenyl)-5-(trifluoromethyl)pyridine-3-carboxamide] |
| < 500 | N#Cc1cccc(NC(=O)c2cc(C(F)(F)F)cnc2Oc2ccc(OC(F)(F)F)cc2Cl)c1 [Example 146, 2-[2-chloro-4-(trifluoromethoxy)phenoxy]-N-(3-cyanophenyl)-5-(trifluoromethyl)pyridine-3-carboxamide] |
| < 500 | CCS(=O)(=O)c1cccc(NC(=O)c2cc(C(F)(F)F)cnc2Oc2ccc(OC(F)(F)F)cc2)c1 [Example 125, N-(3-ethylsulfonylphenyl)-2-[4-(trifluoromethoxy)phenoxy]-5-(trifluoromethyl)pyridine-3-carboxamide] |
